Data set [1] concerns cells derived from human embryonic stem cells SA01. Put plainly: Growth capacity (maximum number of cells before senescence) of MSC type cells cultivated with or without FGF2 and AA2P. In kind it is cell-based. To be noted: versus control FCS20%. Here is the method: (§1) The role of FGF2 and of ascorbic acid 2-phosphate on the growth capacities of the isolated cells according to the method of the invention was analyzed on cells derived from human embryonic stem cells SA01. The cells are cultivated in the presence of 20% fetal calf serum (control condition) and in the presence or in the absence of FGF2 and of ascorbic acid 2-phosphate (AA2P).

Data set [2] relates to SSEA4. In words: Flow cytometry of SSEA4 on MSC type cells derived from hES SA01. The class given is cell-based, human. Conditions: added to control FCS20%; FGF2 10 ng/ml, AA2P 1 mM; control 7. Here is the method:
as §1
The presence of SSEA4 on cells cultivated under these different conditions were analyzed by flow cytometry by using a specific antibody directed against SSEA4.

Data set [3] deals with <<MSC>> SA01 cells derived from hES cells (SA01). In words: Comparative toxicity of statins in 384-well plates, Cell Titer Glow, with and without mevalonate. In kind it is cell-based, human. To be noted: for cell viability as percentage of the result without any treatment, With Mevalonate / cell viability as percentage of the result without any treatment, Without Mevalonate: human, 72 h. Here is the method:
For this experiment, the differentiated <<MSC>> SA01 cells derived from hES cells (SA01) were tested in 384-well plates by using a distribution robot and cell viability was measured by Cell Titer Glow after 72 hours of cultivation.
(Cellular ATP, detected with luciferase, serves as a proxy for viable cell number.)

The test system of data set [4] is <<MSC>> WT cells derived from hES cells. Put plainly: Toxicity of simvastatin in 384-well multiwells, Cell Titer Glow. The class given is cell-based, human. To be noted: 72 hours, 20% fetal calf serum, 2,000 cells per well, DMSO 0.2% 987206. From the text:
Determination of the number of cells by the ATP amount is therefore possible. This approach allows automated readout of the number of cells. Similar results are obtained by using traces of mitochondrial activity. Differentiated cells of the MSC type, derived from hES cells, <<MSC>> WT, were sown on 384 multiwells gelatinized beforehand by using a distribution robot of the Bravo type, at the concentration of 2,000 cells per well.

The test system of data set [5] is MSC cells derived from hES human cells SA01. Put plainly: Prestwick bank screening with and without mevalonate, Cell Titer Glow. The class given is cell-based. To be noted: 2.5 μM, 72 h, mevalonate 2 mM, 96 wells, 20% fetal calf serum.

On to `O=C1O[C@H]([C@@H](O)CO)C(O)=C1OP(=O)(O)O` [AA2P, Ascorbic Acid 2-Phosphate], for which the “increase of the amount of accumulated maximum cells” value in data set [1] is on record as “less than 6 log factor”. Further, in data set [2], the “Average fluorescence intensity (SSEA4)” value was 7.

Take `CC(C)n1c(/C=C/C(O)CC(O)CC(=O)O)c(-c2ccc(F)cc2)c2ccccc21` (centres unmarked) [Fluvostatin]: in data set [3], the “comparative toxicity of statins” value is “more toxic than simvastatin”; the “cell viability as percentage of the result without any treatment, With Mevalonate” value is 104%; the “cell viability as percentage of the result without any treatment, Without Mevalonate” value was found to be 32.8%.

As to `CCC(C)(C)C(=O)O[C@H]1C[C@@H](C)C=C2C=C[C@H](C)[C@H](CC[C@@H]3C[C@@H](O)CC(=O)O3)[C@H]21` [Simvastatin], in data set [3], the “cell viability as percentage of the result without any treatment, With Mevalonate” value came out at 98.3% and the “cell viability as percentage of the result without any treatment, Without Mevalonate” value is on record as 48.7%. The “amount of cells by Cell Titer Glow, Statin 2 μM” value in data set [4] was 474583.

Consider “FGF2: growth factor from the FGF family added to the culture medium”, for which the “increase of the amount of accumulated maximum cells” value in data set [1] was “less than 5 log factor”. Also, in data set [2], the “Average fluorescence intensity (SSEA4)” value came to 10.

For the compound Mevinolin, in data set [5], the “selected in screening 1 (toxicity of more than 35% in the absence, less than 20% in the presence of mevalonate)” value is reported as “isolated”.

The record behind these values is patent publication US9250231B2, “Method for selecting mevalonate synthesis modulators using cells derived from human pluripotent cells” (Centre d'Etude des Cellules Souches, priority 2010, dated 2016).
